Source: US20090048117A1, “MODULATION OF IMMUNE SYSTEM FUNCTION BY MODULATION OF POLYPEPTIDE ARGININE METHYLTRANSFERASES” (President and Fellows of Harvard College, priority 2003, published 2009)

Tests used:
[1] = tested on: IL-4 promoter; assay: IL-4 luciferase reporter assay in Jurkat cells; type: cell-based, human; details: PRMT1 with NFATc2 and c-Maf, PMA/ionomycin stimulation
Protocol: FIGS. 11A-11C depict the effects of MTA on T helper cytokine production. (A) T helper cells were isolated from the lymph nodes of DO11.10 TCR transgenic mice and grown under Th1 or Th2 conditions for 7 days. Th1 and Th2 cells were treated with PMA/ionomycin for 3 hrs or pretreated with 1 mM MTA for 60 min prior to PMA/ionomycin stimulation. RNA was isolated with analyzed by RNase protection analysis for transcript level of indicated cytokines. L32 and GAPDH included in the multitemplate probe set served as an internal control. (B) Cells were grown as in (A) either pretreated with 1 mM MTA or left untreated and intracellular cytokine analysis was performed after stimulation with PMA/ionomycin for 2 hrs and an additional 2 hrs with […] monensin. (C) MTA inhibits IL-4 promoter activity. Jurkat cells were transfected with IL-4 reporter vector (2.5 μg) and expression vectors for c-Maf (2.5 μg), NFATc2 (2.5 μg), and PRMT1 (10 μg) along with a TK-renilla luciferase vector (5 ng) as an internal control. Transfectants were left unstimulated or pretreated with 1 mM MTA before a 6 hr PMA/ionomycin stimulation. Luciferase values were calculated relative to TK renilla luciferase internal controls and are expressed relative to unstimulated reporter activity. Similar results were obtained in at least three independent experiments. […]

[2] = tested on: NFAT reporter element; assay: NFAT consensus site luciferase reporter assay in Jurkat cells; type: cell-based, human; details: PRMT1 with NFATc2
Protocol: FIGS. 13A-13D depict the regulation of the IFNγ and IL-4 promoters by PRMT1. (A) Jurkat cells were transfected with the 9.2 kb IFNγ luciferase reporter 5 μg) and expression vectors for T-bet (5 μg) and PRMT1 (10 μg). Cells were unstimulated or stimulated with PMA/ionomycin for 6 hrs prior to luciferase assays. (B) Jurkat cells were transfected with the IL-4 luciferase reporter (2.5 μg) and expression vectors for NFATc2 (2.5 μg), c-Maf (2.5 μg), and PRMT1 (10 μg). Cells were treated as in (A). (C) Jurkat cells were transfected with the IL-4 luciferase reporter (2.5 μg) and expression vectors for JunB (2.5 μg), c-Maf (2.5 μg), and PRMT1 (10 μg). Cells were treated as in (A). (D) Jurkat cells were transfected with an luciferase reporter driven by NFAT consensus sites and expression vectors for NFATc2 (2.5 μg) and PRMT1 (10 μg). Cells were treated as in (A). (Luciferase units were normalized to TK-renilla luciferase activity. Results are representative to at least three independent experiments.)
The IL-4 promoter contains several composite NFAT/AP-1 sites. Whether PRMT1 coactivation is mediated through NFAT or AP-1 factors was investigated as both NFAT and JunB are involved in the regulation of IL-4 promoter activity (Li, B., et al. (1999) EMBO J 18:420-432). […]

[3] = tested on: NFAT4; assay: Nuclear translocation of NFAT4 by immunofluorescence in HepG2 cells; type: cell-based; parameters: key: Subcellular localization of NFAT4 in the cytoplasm is indicated by a (−); nuclear translocation of NFAT4 is indicated by (^+); details: 1 μM ionomycin
Protocol: The effect of NIP45 on the nuclear translocation of NFAT4 also was investigated. HepG2 cells were transfected with either NFAT4 or NFAT4 plus NIP45 and stimulated the following day with 1 μM ionomycin for 0, 2, 4, 8 or 15 minutes. For one sample, the cells were stimulated for 15 minutes with ionomycin and then washed with fresh media and allowed to rest for an additional 15 minutes (indicated as “15 min.^+15 min. rest” in Table 1). This analysis is designed to examine the function of NIP45 as a nuclear retention factor. […] All samples were then fixed and analyzed by immunofluorescence for translocation of NFAT4 as described above. Subcellular localization of NFAT4 in the cytoplasm is indicated by a (−) and nuclear translocation of NFAT4 is indicated by (^+).

Compound	IL-4 promoter activity over NFATc2/c-Maf only [1] [fold]	augmentation of NFATc2 transactivation of an NFAT reporter element [2]	Nuclear Translocation of NFAT4 ([3]; 0 min.)	Nuclear Translocation of NFAT4 ([3]; 8 min.)	Nuclear Translocation of NFAT4 ([3]; 15 min.)	Nuclear Translocation of NFAT4 ([3]; 15 min. + 15 min. rest in fresh media)
PRMT1: type I protein arginine methyltransferase (SEQ ID NO:10), expressed from a transfected expression vector	5	approximately 10 fold				
C[C@H](CCC(=O)O)C[C@H](C)C[C@H](C)C(=O)/C=C(\O)[C@H](C)C[C@H](C)C/C=C/[C@@H](C)[C@@H](O)[C@@H](C)[C@@H](O)C[C@@H]1CC[C@@](C)([C@H]2CC[C@@](C)([C@@H](C)O)O2)O1 [Ionomycin, ionomycin]			−	+	+	−
